From paper PMC8009514 (Langmuir, 2020)
Where two headings read alike, the source gives them in different places. Ends that are not written are not given here.

How the values were obtained:
[1] = Visual observation of gel-like (arrested) state; type: physicochemical
Method: Previous SAXS experiments on the peptides in water[13],[17] have shown that this concentration could be considered dilute enough not to manifest any effects of interaggregate interactions in the scattering profiles. The first observation made was that the peptide samples in MeOH and DMF were more viscous than the corresponding samples in water prepared at similar concentrations and presented highly viscous (gel-like) states after 5-12 h from solubilization (Figure 2).

[2] = Monomer solubility (cs) from scattered light intensity on dilution; type: physicochemical
Method: Dynamic light scattering (DLS) experiments were performed with an ALV/DLS/SLS-5022F goniometer system with an ALV-7004 correlator at a scattering angle of 90°. The laser source was a 22 mW He–Ne laser with a wavelength of 632.8 nm. The samples were placed in 5 mm glass tubes, kept at 25 °C, and the intensity autocorrelation functions were collected over runs of 300 s, using two avalanche photodiode detectors operating in the pseudo-cross-correlational mode. Light scattering experiments were also performed using a modulated three-dimensional light scattering instrument (LS Instruments GmbH, Switzerland), implementing a laser with a wavelength of 660 nm and two avalanche photodiodes. […] The experimental intensity correlation functions g^(2)(τ) were converted to C(τ) = (g^(2)(τ) – 1)/β = |g^(1)(τ)|^2,[35] where β is an instrumental constant, close to unity, and g^(1)(τ) is the correlation function of the electric field, which was fitted using the cumulant expansion to obtain an average diffusion coefficient.[36] Fitting was performed with an in-house MATLAB script.
Aggregates begin to form above a particular concentration, which can be interpreted as the monomer solubility, cs. This concentration can be measured, for example, by following the scattered light intensity as a function of dilution of a sample with an initial concentration c > cs.[13] For this purpose, solutions of the peptides at 1 wt % were gradually diluted in order to determine at which concentration the light scattering signal reached the solvent level, which is a good indication of the monomer solubility. […] For A8K, the monomer solubilities of about 10 μM were obtained, which means approximately 2 orders of magnitude smaller compared to that in water.

[3] = cited from earlier work
Source text: Aggregates begin to form above a particular concentration, which can be interpreted as the monomer solubility, cs. This concentration can be measured, for example, by following the scattered light intensity as a function of dilution of a sample with an initial concentration c > cs.[13] For this purpose, solutions of the peptides at 1 wt % were gradually diluted in order to determine at which concentration the light scattering signal reached the solvent level, which is a good indication of the monomer solubility. With this method, monomer solubilities of 2 mM and 7 μM in water were determined f ...

[4] = cited from earlier work; remark: listed apart in the source
Source text: Table 1 Some Physicochemical Properties of the Three Solvents in Which the Self-Assembly of the Peptides Was Investigated | column: H2O; MeOH; DMF

[5] = light scattering intensity on dilution; peptide in methanol, 1 wt % solution gradually diluted, mean count rate at 90°; concentration at which the signal reaches the solvent level is taken as monomer solubility; settings: other: light scattering intensity on dilution
[6] = light scattering intensity on dilution; peptide in N,N-dimethylformamide, 1 wt % solution gradually diluted, mean count rate at 90°; concentration at which the signal reaches the solvent level is taken as monomer solubility; settings: other: light scattering intensity on dilution
[7] = target: the molecule itself; test: as above

In the case of `C[C@H](N)C(=O)N[C@@H](C)C(=O)N[C@@H](C)C(=O)N[C@@H](C)C(=O)N[C@@H](C)C(=O)N[C@@H](C)C(=O)N[C@@H](C)C(=O)N[C@@H](C)C(=O)N[C@@H](C)C(=O)N[C@@H](C)C(=O)N[C@@H](CCCCN)C(=O)O` [A10K], the “time from solubilization to highly viscous (gel-like) state” value ([1]; samples around 1 wt % in MeOH and DMF) is reported as 5 to 12 h, the monomer solubility cs ([2]; in DMF, 1 wt % TFA-salt solution gradually diluted until light scattering signal reached solvent level, mean count rate at 90°, average of three runs of 100 s) is reported as “approximately the same solubilities” and the monomer solubility cs ([2]; in MeOH, 1 wt % TFA-salt solution gradually diluted until light scattering signal reached solvent level, mean count rate at 90°, average of three runs of 100 s) is reported as “approximately the same solubilities”. The monomer solubility cs ([3]; in water, scattered light intensity on dilution of a sample with c > cs) was 7 µM.

For `CCCCCCCCCCCCOS(=O)(=O)[O-].[Na+]` [SDS], the CMC of SDS at 25 °C ([4]; in DMF) is listed as 14.6 mM, the CMC of SDS at 25 °C ([4]; in H2O) is listed as 7.8 mM and the CMC of SDS at 25 °C ([4]; in MeOH) is listed as 6.9 mM.

In the case of `CCCCCC` [hexane], the “solubility of hexane at 25 °C” value ([4]; in H2O) is given as 0.0124 mg/mL and the “solubility of hexane at 25 °C” value ([4]; in MeOH) is given as 604 mg/mL.

For AAAAAAAAK [A8K], the “time from solubilization to highly viscous (gel-like) state” value [1] is listed as 5 to 12 h, the monomer solubility cs [2] is listed as “about 10 μM” and the monomer solubility cs [3] is listed as 2000 µM.

In the case of AAAAAAAAK [A8K amphiphilic model peptide], the “monomer solubility cs (concentration above which aggregates form)” value [5] is reported as “For A8K, the monomer solubilities of about 10 μM were obtained” and the “monomer solubility cs (concentration above which aggregates form)” value [6] is reported as “For A8K, the monomer solubilities of about 10 μM were obtained”.

B1: A10K amphiphilic model peptide (peptide)
peptide: AAAAAAAAAAK
notes: unprotected N-terminus; 11 residues, 857 g/mol; Designed model peptide; The printed molecular weight (857 g/mol) fits free N- and C-termini; TFA counterions are present; also called AnK (n = 10); source: synthetic peptide; bought: CPC Scientific Inc., trifluoroacetate salt, purity >96%, used without further purification
B1: binds [7].
